From patent US20240279089A1, “METHOD FOR CONTROLLING THE GROWTH OF MICROORGANISMS” (RED BULL GMBH, priority 2021, published 2024)

How the values were obtained:
[1] = system: microorganisms; experiment: Germ count in process water of pasteurization plants (Plate Count Agar); format: cell-based
Description: In order to examine the influence of chlorine dioxide on the microbial quality of process water, the process water of a first pasteurization plant was mixed with the aqueous solution according to the invention containing chlorine dioxide, and the process water of a second pasteurization plant was mixed with a biocide.
(§1) The aqueous solution according to the invention containing chlorine dioxide (prepared with the persulfate-chlorite process) was metered discontinuously into the process water of the first pasteurization plant in an amount so as to keep the redox potential of the process water in the range of 400 to 800 mV. When the redox potential in the process water fell below 400 to 450 mV, the aqueous solution according to the invention containing chlorine dioxide was metered in until a redox potential between 750 and 800 mV was reached.
In contrast, bronopol was added to the process water of the second pasteurization plant on a time-controlled basis (every three days) in such an amount that the concentration of bronopol in the process water was […]. […]
The germ count in 1 ml of sample was determined using “Plate Count Agar” (PCA), with the appropriate amount of process water being applied to PCA plates. One plate at a time was incubated at 37° C., and one plate at a time was incubated at 28° C. The evaluation of the germ count took place after 2 and 5 days, respectively.

[2] = Redox potential of treated process water; format: physicochemical
Description: as §1
Concurrently. the redox potential of the pasteurization plant in which chlorine dioxide was metered into the process water was measured at the time of sampling for determining the germ count.
In 5 measurements within the examination period. the redox potential of the process water treated with bronopol always amounted to more than 1000 mV.

O=[N+]([O-])C(Br)(CO)CO [bronopol, reference compound]
Germ count/ml process water ([1]; 1 Mar. 2021): >10000 mL⁻¹ | Germ count/ml process water ([1]; 2 Feb. 2021): 81600 mL⁻¹ | Germ count/ml process water ([1]; 4 Feb. 2021): >10000 mL⁻¹ | Germ count/ml process water ([1]; 4 Jan. 2021): 3600 mL⁻¹ | Germ count/ml process water ([1]; 5 Apr. 2021): >10000 mL⁻¹ | Germ count/ml process water ([1]; 7 Jan. 2021): 4200 mL⁻¹ | Germ count/ml process water ([1]; 8 Apr. 2021): >10000 mL⁻¹ | Germ count/ml process water ([1]; 8 Feb. 2021): >10000 mL⁻¹ | Germ count/ml process water ([1]; 11 Feb. 2021): >10000 mL⁻¹ | Germ count/ml process water ([1]; 11 Jan. 2021): 3400 mL⁻¹ | Germ count/ml process water ([1]; 12 Apr. 2021): >10000 mL⁻¹ | Germ count/ml process water ([1]; 12 Mar. 2021): >10000 mL⁻¹ | Germ count/ml process water ([1]; 14 Jan. 2021): >10000 mL⁻¹ | Germ count/ml process water ([1]; 15 Apr. 2021): >10000 mL⁻¹ | Germ count/ml process water ([1]; 15 Mar. 2021): >10000 mL⁻¹ | Germ count/ml process water ([1]; 17 Feb. 2021): 76000 mL⁻¹ | Germ count/ml process water ([1]; 18 Feb. 2021): >10000 mL⁻¹ | Germ count/ml process water ([1]; 18 Jan. 2021): >10000 mL⁻¹ | Germ count/ml process water ([1]; 18 Mar. 2021): >10000 mL⁻¹ | Germ count/ml process water ([1]; 19 Apr. 2021): >10000 mL⁻¹ | Germ count/ml process water ([1]; 21 Jan. 2021): 60200 mL⁻¹ | Germ count/ml process water ([1]; 22 Feb. 2021): >10000 mL⁻¹ | Germ count/ml process water ([1]; 22 Mar. 2021): >10000 mL⁻¹ | Germ count/ml process water ([1]; 23 Apr. 2021): >10000 mL⁻¹ | Germ count/ml process water ([1]; 25 Jan. 2021): >10000 mL⁻¹ | Germ count/ml process water ([1]; 25 Mar. 2021): >10000 mL⁻¹ | Germ count/ml process water ([1]; 26 Apr. 2021): >10000 mL⁻¹ | Germ count/ml process water ([1]; 26 Feb. 2021): 51000 mL⁻¹ | Germ count/ml process water ([1]; 28 Jan. 2021): 54400 mL⁻¹ | Germ count/ml process water ([1]; 29 Apr. 2021): >10000 mL⁻¹ | Germ count/ml process water ([1]; 29 Mar. 2021): >10000 mL⁻¹ | redox potential of the process water ([2]; 5 measurements within the examination period): more than 1000 mV

[O][Cl+][O-] [chlorine dioxide]
Germ count/ml process water ([1]; 1 Mar. 2021): 940 mL⁻¹ | Germ count/ml process water ([1]; 2 Feb. 2021): 7040 mL⁻¹ | Germ count/ml process water ([1]; 4 Feb. 2021): 800 mL⁻¹ | Germ count/ml process water ([1]; 4 Jan. 2021): 280 mL⁻¹ | Germ count/ml process water ([1]; 5 Apr. 2021): 160 mL⁻¹ | Germ count/ml process water ([1]; 7 Jan. 2021): 3840 mL⁻¹ | Germ count/ml process water ([1]; 8 Apr. 2021): 2800 mL⁻¹ | Germ count/ml process water ([1]; 8 Feb. 2021): 80 mL⁻¹ | Germ count/ml process water ([1]; 11 Feb. 2021): 100 mL⁻¹ | Germ count/ml process water ([1]; 11 Jan. 2021): 3480 mL⁻¹ | Germ count/ml process water ([1]; 12 Apr. 2021): 6560 mL⁻¹ | Germ count/ml process water ([1]; 12 Mar. 2021): 9200 mL⁻¹ | Germ count/ml process water ([1]; 14 Jan. 2021): 3120 mL⁻¹ | Germ count/ml process water ([1]; 15 Apr. 2021): 700 mL⁻¹ | Germ count/ml process water ([1]; 15 Mar. 2021): 100 mL⁻¹ | Germ count/ml process water ([1]; 17 Feb. 2021): 200 mL⁻¹ | Germ count/ml process water ([1]; 18 Feb. 2021): 1120 mL⁻¹ | Germ count/ml process water ([1]; 18 Jan. 2021): 4160 mL⁻¹ | Germ count/ml process water ([1]; 18 Mar. 2021): 60 mL⁻¹ | Germ count/ml process water ([1]; 19 Apr. 2021): 140 mL⁻¹ | Germ count/ml process water ([1]; 21 Jan. 2021): 2100 mL⁻¹ | Germ count/ml process water ([1]; 22 Feb. 2021): 1740 mL⁻¹ | Germ count/ml process water ([1]; 22 Mar. 2021): 8000 mL⁻¹ | Germ count/ml process water ([1]; 23 Apr. 2021): 2020 mL⁻¹ | Germ count/ml process water ([1]; 25 Jan. 2021): 4800 mL⁻¹ | Germ count/ml process water ([1]; 25 Mar. 2021): 10000 mL⁻¹ | Germ count/ml process water ([1]; 26 Apr. 2021): 4500 mL⁻¹ | Germ count/ml process water ([1]; 26 Feb. 2021): 2340 mL⁻¹ | Germ count/ml process water ([1]; 28 Jan. 2021): 500 mL⁻¹ | Germ count/ml process water ([1]; 29 Apr. 2021): 3700 mL⁻¹ | Germ count/ml process water ([1]; 29 Mar. 2021): 10000 mL⁻¹ | germ count compared with conventional biocide (in words) ([1]; redox potential kept at 400 to 800 mV, 4 months): lower germ count | Redox potential in process water ([2]; 1 Mar. 2021): 720 mV | Redox potential in process water ([2]; 2 Feb. 2021): 710 mV | Redox potential in process water ([2]; 4 Feb. 2021): 550 mV | Redox potential in process water ([2]; 4 Jan. 2021): 810 mV | Redox potential in process water ([2]; 5 Apr. 2021): 770 mV | Redox potential in process water ([2]; 7 Jan. 2021): 740 mV | Redox potential in process water ([2]; 8 Apr. 2021): 640 mV | Redox potential in process water ([2]; 8 Feb. 2021): 800 mV | Redox potential in process water ([2]; 11 Feb. 2021): 750 mV | Redox potential in process water ([2]; 11 Jan. 2021): 710 mV | Redox potential in process water ([2]; 12 Apr. 2021): 450 mV | Redox potential in process water ([2]; 12 Mar. 2021): 580 mV | Redox potential in process water ([2]; 14 Jan. 2021): 700 mV | Redox potential in process water ([2]; 15 Apr. 2021): 800 mV | Redox potential in process water ([2]; 15 Mar. 2021): 760 mV | Redox potential in process water ([2]; 17 Feb. 2021): 780 mV | Redox potential in process water ([2]; 18 Feb. 2021): 740 mV | Redox potential in process water ([2]; 18 Jan. 2021): 620 mV | Redox potential in process water ([2]; 18 Mar. 2021): 780 mV | Redox potential in process water ([2]; 19 Apr. 2021): 780 mV | Redox potential in process water ([2]; 21 Jan. 2021): 540 mV | Redox potential in process water ([2]; 22 Feb. 2021): 510 mV | Redox potential in process water ([2]; 22 Mar. 2021): 660 mV | Redox potential in process water ([2]; 23 Apr. 2021): 560 mV | Redox potential in process water ([2]; 25 Jan. 2021): 420 mV | Redox potential in process water ([2]; 25 Mar. 2021): 490 mV | Redox potential in process water ([2]; 26 Apr. 2021): 630 mV | Redox potential in process water ([2]; 26 Feb. 2021): 640 mV | Redox potential in process water ([2]; 28 Jan. 2021): 790 mV | Redox potential in process water ([2]; 29 Apr. 2021): 680 mV | Redox potential in process water ([2]; 29 Mar. 2021): 430 mV
